Laboratory results as given in PubChem BioAssay (NCI).
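Tested at 5 concentrations; 48 h exposure; 96-well plates; endpoints linearly interpolated, else capped at highest concentration. At the TGI there is no net growth.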

Tests used:
Assay in all cases: DTP human tumour cell line panel, 48 h
SF-295 CNS = tested on: SF-295 CNS
HCC-2998 colon = tested on: HCC-2998 colon
SNB-19 CNS = tested on: SNB-19 CNS
MDA-N = tested on: MDA-N
U251 CNS = tested on: U251 CNS
TK-10 renal = tested on: TK-10 renal
NCI-H522 lung = tested on: NCI-H522 lung
NCI/ADR-RES ovarian = tested on: NCI/ADR-RES ovarian
MOLT-4 leukemia = tested on: MOLT-4 leukemia
HS 578T breast = tested on: HS 578T breast
COLO 205 colon = tested on: COLO 205 colon
SN12C renal = tested on: SN12C renal
786-0 renal = tested on: 786-0 renal
RXF 393 renal = tested on: RXF 393 renal
UACC-62 melanoma = tested on: UACC-62 melanoma

Row | Structure (SMILES) | TGI (SF-295 CNS) [µM] | TGI (HCC-2998 colon) [µM] | TGI (SNB-19 CNS) [µM] | TGI (MDA-N) [µM] | TGI (U251 CNS) [µM] | TGI (TK-10 renal) [µM] | TGI (NCI-H522 lung) [µM] | TGI (NCI/ADR-RES ovarian) [µM] | TGI (MOLT-4 leukemia) [µM] | TGI (HS 578T breast) [µM] | TGI (COLO 205 colon) [µM] | TGI (SN12C renal) [µM] | TGI (786-0 renal) [µM] | TGI (RXF 393 renal) [µM] | TGI (UACC-62 melanoma) [µM]
1 | CC1(C)OC(=S)N(c2ccccc2)C12C=Cc1ccccc1O2 (configuration not stated) | > 100 | > 100 | > 100 | > 100 | > 100 | > 100 | > 100 | > 100 | 76.5 | > 100 | > 100 | > 100 | > 100 | > 100 | > 100
2 | CC(=O)Oc1ccc(/C=C/C(=O)OCCCOC(=O)/C=C/c2ccc(OC(C)=O)c(OC(C)=O)c2)cc1OC(C)=O | > 100 | > 100 | > 100 | > 100 | > 100 | > 100 | > 100 | > 100 | > 100 | > 100 | > 100 | > 100 | > 100 | > 100 | > 100
3 | C[C@]12C[C@@H](OC(=O)[C@]1(C)O)[C@@H]([C@]1(O)CC[C@H]3[C@@H]4C[C@H]5O[C@]56C[C@H]5O[C@H]5C(=O)[C@]6(C)[C@H]4CC[C@@]31C)C2 | > 50 | > 50 | > 50 | > 50 | > 50 | > 50 | > 50 | > 50 | > 50 | > 50 | > 50 | > 50 | > 50 | > 50 | > 50
4 | N#Cc1c2c(c(N)oc1=O)C(c1ccccc1)CC(=O)N2 (configuration not stated) | > 100 | > 100 | > 100 | > 100 | > 100 | > 100 | > 100 | > 100 | > 100 | > 100 | > 100 | > 100 | > 100 | > 100 | > 100
5 | c1cnc2c(c1)ccc1cccnc12 | > 100 | > 62.4 | > 100 | > 100 | > 100 | > 92 | > 100 | > 74.7 | 8.37 | 97.8 | > 83.3 | > 28.2 | > 100 | > 100 | > 100
6 | Cc1cn(CCCCC2=NCCCN2)c(=O)[nH]c1=O | > 65.5 | > 32.9 | > 66.2 | > 100 | > 46.4 | > 36.6 | > 46.3 | > 67.5 | > 37.1 | > 60.5 | > 43.4 | > 100 | > 30.1 | > 32.6 | > 59.1
7 | NC(=O)C(=CNC(=S)Nc1ccccc1)C(N)=O | > 100 | > 100 | > 100 | > 100 | > 100 |  | > 100 | > 100 | > 100 | > 100 | > 100 | > 100 | > 100 | > 100 | > 100
8 | CC1=NC(=Cc2ccccc2O)C(=O)N1n1c(-c2ccccc2)nc2ccccc2c1=O | > 100 | > 100 | > 100 | > 100 | > 100 | > 100 | > 100 | 93.5 | > 100 | > 100 | > 100 | > 100 | > 100 | > 100 | 34.6
9 | O=[N+]([O-])/C(C(Cl)=C(Cl)Cl)=C(/Cl)SCc1ccccc1 | 69.1 | 43.5 | 43.2 | 4.23 | 25.1 | 18.9 | 7.8 | 3.62 | 1.25 | 9.67 | 4.49 | 12.9 | 3.09 | 9.35 | 14.4
10 | CCOC(=O)C1(F)S(=O)(=O)OCCOS1(=O)=O | > 100 | > 100 | > 100 | > 100 | > 100 | > 100 | > 100 | > 100 | > 100 | > 100 | > 100 | > 100 | > 100 | > 100 | > 100
11 | CCOC(=O)NNC(=O)NCc1cccc(CNC(=O)NNC(=O)OCC)c1 |  | > 100 | > 100 | > 100 | > 100 | > 100 | > 100 | > 100 | > 100 | > 100 | > 100 | > 100 | > 100 | > 100 | > 100
12 | CCOC(=O)C(C(=O)OCC)=C1NC2(c3ccccc3Nc3ccccc32)C(C#N)S1 (configuration not stated) | 40 | 17.1 | 35.1 | 36.3 | 24.5 | 38.6 | 29.2 | 28.8 | 10.1 | 46.3 | 19.4 | 18.9 | 23.8 | 33 | 22
13 | COC(=O)c1ccc2c(c1)S/C(=C/c1ccc3ccc4cccc5ccc1c3c45)S2 | > 100 | > 100 | > 100 | > 100 | > 100 | > 100 | 92.2 | 76.2 | > 100 | > 100 | > 100 | > 100 | > 100 | > 100 | 61
14 | N#Cc1nc(-c2ccco2)oc1N | > 10 | > 10 | > 10 | > 10 |  | > 10 | > 10 | > 10 | > 10 | > 10 | > 10 |  | > 10 | > 10 | > 10
15 | O=C(NC1CCN(Cc2ccccc2)CC1)c1ccc(I)cc1 | > 100 |  | > 100 | > 100 | > 100 | > 100 | > 100 | > 100 | > 100 | > 100 | > 100 | > 100 | > 100 | 85.7 | > 100
16 | CCOC(=O)N1N=C(/C(C)=N/OC)C(C)S1=O (configuration not stated) | > 100 | > 100 | > 100 | > 100 | > 100 | > 100 | > 100 | > 100 | > 100 | > 100 | > 100 | > 100 | > 100 | > 100 | > 100
17 | Nc1ncnc2oc(C3OC(COC(=O)c4ccccc4)C(OC(=O)c4ccccc4)C3OC(=O)c3ccccc3)nc12 (configuration not stated) | > 100 | > 100 | > 100 | > 100 | > 100 | > 100 | > 100 | > 100 | > 100 | > 100 | > 100 | > 100 | > 100 | > 100 | > 100
18 | C[N+](C)(C)c1ncnc2c1ncn2C1CC(O)C(CO)O1 (configuration not stated) | > 100 | > 100 | > 100 | > 100 | > 100 | > 100 | > 100 | > 100 | > 100 | > 100 | > 100 | > 100 | > 100 | > 100 | > 100
19 | COC(=O)c1c(C)n([O-])c2cc(Cl)c(Cl)cc2[n+]1=O | > 100 | 32.1 | > 100 | > 100 | > 100 | 61.5 | 25.4 | 49.5 | 84.5 | 65.6 | 25.8 | 84 | > 100 | > 100 | 40.3
20 | c1cc2nnc1SCCCSc1ccc(nn1)SCCCS2 | > 100 | 99.5 | > 93.2 | > 100 | > 86.9 | 98.8 | > 100 | > 52.9 | > 100 | 99.2 | > 81.3 | > 95.6 | > 100 | 75.5 | > 77.6
21 | C=C1CC(c2ccc(OCCCN3C(=O)c4ccccc4C3=O)cc2)OC1=O (configuration not stated) | 25.5 | 16.8 | 25.5 | 10.7 | 10.7 | 14.5 | 1.83 | > 95.1 | 4.06 | 20.4 | 6.37 | 12.3 | 5.23 | 3.65 | 4.75
22 | Fc1ccc(N2C(=S)SC(=Nc3ccccc3)C2=Nc2ccccc2)cc1 | > 100 | > 100 | > 100 | > 100 | > 100 | > 100 | > 100 | > 100 | > 100 | > 100 | > 100 | > 100 | > 100 | > 100 | > 100
23 | O=C(c1ccccc1)N(C(=O)c1ccccc1)c1nc(SCc2ccccc2)ns1 | 79.1 | 49.9 | > 100 | 90.5 | 37.8 | 84.5 | 61.5 | 78.7 | 78 | 86.3 | 40.3 | 64.7 | 70.5 | > 100 | 42.9
24 | COC(=O)c1cc2c(c3c1CC(Cc1ccccc1)C3=O)CCC2 (configuration not stated) | > 100 | > 100 | > 100 | > 100 | > 100 | > 100 | > 100 | > 100 | > 100 | > 100 | > 100 | > 100 | > 100 | > 100 | > 100
25 | Cc1cc(N(CCC#N)CCC#N)ccc1/C(N=Nc1cccc(Cl)c1)=N/NC(=O)c1cc(Cl)ccc1O | > 100 | 26.2 | > 100 | > 100 | > 100 | 59.7 | 49 | 54.6 | 34.8 | > 100 | 17.8 | 61.3 | 64.8 | 35.3 | 28.9
26 | Clc1cc(Cl)cc(N=C/C=C/Nc2cc(Cl)cc(Cl)c2)c1 | 51.4 | 33.4 | 53.8 | 38.6 | 33.5 | 87 | 34.1 | 34.6 | 49.6 | > 100 | 30.2 | 38.8 | 31.4 | 36.8 | 48
27 | CCOP1(=O)CC(C)=C(Cl)C(O)C1 (configuration not stated) | > 100 | > 100 | > 100 | > 100 | > 100 | > 100 | > 100 | > 100 | > 100 | > 100 | > 100 | > 100 | > 100 | > 100 | > 100
28 | O=C1C(Cl)C2(CC(/C=C/c3ccccc3)=NN2c2cccc(S(=O)(=O)O)c2)N1c1nc2ccccc2s1 (configuration not stated) |  | 27.8 | > 100 | 46 | 32.1 | 30.9 | 20.1 | > 100 | 42.2 | > 100 | 37.8 | 36.1 | 31 | 42.3 | 29.8
29 | O=C1CSC2(CC(/C=C/c3cccc([N+](=O)[O-])c3)=NN2c2cccc(S(=O)(=O)O)c2)N1c1nc2ccccc2s1 (configuration not stated) |  | > 100 | 43.6 | 59.1 | 36.3 | 39.8 | 34.1 | 70.1 | 64.9 | > 100 | > 100 | 49.9 | 31.8 | > 100 | 45.5
30 | CCOC(=O)c1nc2cc(C(F)(F)F)ccc2nc1Nc1ccc(OC)cc1 | > 100 | > 100 | > 100 | > 100 |  | > 100 | > 100 | > 100 | > 100 | > 100 | > 100 | > 100 | > 100 | > 100 | > 100
